Results reported in patent publication US8962843B2, “1,3,4-oxadiazole and 1,3,4-thiadiazole beta-lactamase inhibitors” (priority 2012, dated 2015).
Counter-ions that a name gives are not always drawn.

Test system: bacterial strains that express the class D cephalosporinase OXA-15
Test: Standard BLI potentiation MIC / synergy MIC assays, strains expressing OXA-15
Type: cell-based, E. coli
Settings: in combination with a β-lactam; comparator Avibactam (CCC)
Experimental: The experimental protocol was performed according to Clinical and Laboratory Standards Institute (CLSI) guidelines with modifications as described below (CLSI guidelines can be derived from the CLSI document M07-A9 published in January 2012: “Methods for Dilution Antimicrobial Susceptibility Tests for Bacteria That Grow Aerobically; Approved Standard-Ninth Edition”).
To prepare for MIC testing, frozen glycerol stocks of clinical isolates (Klebsiella pneumoniae, Eschericia coli, Enterobacter spp, Citrobacter spp, or Pseudomonas aeruginosa) were used to streak for isolated colonies on rich, non-selective, tryptic soy agar containing 5% sheep's blood (TSAB). Frozen glycerol stocks of laboratory engineered, isogenic E. coli strains, which contain cloned β-lactamase expressing plasmids were used to streak for isolated colonies on rich, selective LB agar supplemented with 25 μg/mL tetracycline to maintain the plasmid. All strains were incubated at 37° C. for 18-24 hrs.
On the day of testing, primary cultures were started by scraping off 5-10 colonies from the TSAB plates containing clinical strains or the tetracycline supplemented LB plates containing engineered strains. The clinical strain material was suspended in ˜5 mL of cation adjusted Mueller Hinton Broth (CAMHB) in 14 mL culture tubes. The engineered strain material was suspended in CAMHB (supplemented with 25 μg/mL tetracycline) in 14 mL culture tubes. All strains were incubated at 37° C. with aeration (200 rpm) for ˜2 hrs until the optical density at 600 nm (OD600) was >0.1.
The two compound components of the assay were each diluted in CAMHB and added to the 96-well broth microdilution assay plates. 50 μL of the β-lactam was added to each well of the assay plate in 2-fold dilutions with final concentrations ranging from 128 to 0.13 μg/mL. 25 μL of the BLI compound was added to all wells in the broth microdilution plates at a final concentration of 4 μg/mL. Inoculum cultures were prepared by standardizing the primary cultures to OD600=0.1 and then adding 20 μL of the adjusted primary culture per 1 mL CAMHB for clinical strains or CAMHB (supplemented with tetracycline at 100 μg/mL) for engineered strains, so that the final inoculum density was ˜10^5 colony forming units per milliliter. Diluted inoculum cultures were used to inoculate 25 μl, per well in 96-well broth microdilution assay plates. The final volume of each well was 100 μL and contained a β-lactam at different concentrations, a BLlcompound at 4 μg/mL concentration, the bacterial culture at an OD600 of approximately 0.001 and when necessary tetracycline at 25 μg/mL.
Plates were incubated for 18-20 hours at 37° C. with aeration (200 rpm). Following incubation, growth was confirmed visually placing plates over a viewing apparatus (stand with a mirror underneath) and then OD600 was measured using a SpectraMax 340PC384 plate reader (Molecular Devices, Sunnyvale, Calif.). Growth was defined as turbidity that could be detected with the naked eye or achieving minimum OD600 of 0.1. MIC values were defined as the lowest concentration producing no visible turbidity.
The synergy MIC (sMIC) assay determines the concentration of the BLI required to potentiate the activity of a fixed concentration of a β-lactam antibiotic against β-lactamase producing bacterial strains. The experimental protocol was performed according to Clinical and Laboratory Standards Institute (CLSI) guidelines with modifications as described below (CLSI guidelines can be derived from the CLSI document M07-A9 published in January 2012: “Methods for Dilution Antimicrobial Susceptibility Tests for Bacteria That Grow Aerobically; Approved Standard-Ninth Edition”). […]

Row | SMILES | activity against bacterial strains that express the class D cephalosporinase OXA-15, compared with Avibactam
1 | O=C1N2C[C@@H](CC[C@H]2c2nnc(CCCN3CCNCC3)o2)N1OS(=O)(=O)O [Compound 792, (2S,5R)-7-oxo-2-(5-(3-(piperazin-1-yl)propyl)-1,3,4-oxadiazol-2-yl)-1,6-diazabicyclo[3.2.1]octan-6-yl hydrogen sulfate] | more active than Avibactam
2 | N[C@H]1CC[C@@H](c2nnc([C@@H]3CC[C@@H]4CN3C(=O)N4OS(=O)(=O)O)o2)CC1 [Compound 780, (2S,5R)-2-(5-((1s,4R)-4-aminocyclohexyl)-1,3,4-oxadiazol-2-yl)-7-oxo-1,6-diazabicyclo[3.2.1]octan-6-yl hydrogen sulfate] | more active than Avibactam
3 | N[C@H]1CC[C@H](c2nnc([C@@H]3CC[C@@H]4CN3C(=O)N4OS(=O)(=O)O)o2)CC1 [Compound 781, (2S,5R)-2-(5-((1r,4S)-4-aminocyclohexyl)-1,3,4-oxadiazol-2-yl)-7-oxo-1,6-diazabicyclo[3.2.1]octan-6-yl hydrogen sulfate] | more active than Avibactam
4 | N=C(N)N[C@H]1C[C@H](c2nnc([C@@H]3CC[C@@H]4CN3C(=O)N4OS(=O)(=O)O)o2)C1 [Compound 748, (2S,5R)-2-(5-((1r,3S)-3-guanidinocyclobutyl)-1,3,4-oxadiazol-2-yl)-7-oxo-1,6-diazabicyclo[3.2.1]octan-6-yl hydrogen sulfate] | more active than Avibactam
5 | N=C(N)NCc1nnc([C@@H]2CC[C@@H]3CN2C(=O)N3OS(=O)(=O)O)o1 [Compound 704, (2S,5R)-2-(5-(guanidinomethyl)-1,3,4-oxadiazol-2-yl)-7-oxo-1,6-diazabicyclo[3.2.1]octan-6-yl hydrogen sulfate] | more active than Avibactam
6 | NC1CCN(c2nnc([C@@H]3CC[C@@H]4CN3C(=O)N4OS(=O)(=O)O)o2)CC1 [Compound 773, (2S,5R)-2-(5-(4-aminopiperidin-1-yl)-1,3,4-oxadiazol-2-yl)-7-oxo-1,6-diazabicyclo[3.2.1]octan-6-yl hydrogen sulfate] | more active than Avibactam
7 | O=C1N2C[C@@H](CC[C@H]2c2nnc(CC3CNC3)o2)N1OS(=O)(=O)O [Compound 725, (2S,5R)-2-(5-(azetidin-3-ylmethyl)-1,3,4-oxadiazol-2-yl)-7-oxo-1,6-diazabicyclo[3.2.1]octan-6-yl hydrogen sulfate] | more active than Avibactam
8 | O=C1N2C[C@@H](CC[C@H]2c2nnc(C3CCNCC3)s2)N1OS(=O)(=O)O [Compound 719, (2S,5R)-7-oxo-2-(5-(piperidin-4-yl)-1,3,4-thiadiazol-2-yl)-1,6-diazabicyclo[3.2.1]octan-6-yl hydrogen sulfate] | more active than Avibactam
9 | O=C1N2C[C@@H](CC[C@H]2c2nnc(N3CCNCC3)s2)N1OS(=O)(=O)O [Compound 797, (2S,5R)-7-oxo-2-(5-(piperazin-1-yl)-1,3,4-thiadiazol-2-yl)-1,6-diazabicyclo[3.2.1]octan-6-yl hydrogen sulfate] | more active than Avibactam
10 | O=C1N2C[C@@H](CC[C@H]2c2nnc(CNC3CCNCC3)o2)N1OS(=O)(=O)O [Compound 769, (2S,5R)-7-oxo-2-(5-((piperidin-4-ylamino)methyl)-1,3,4-oxadiazol-2-yl)-1,6-diazabicyclo[3.2.1]octan-6-yl hydrogen sulfate] | more active than Avibactam
11 | Nc1nnc([C@@H]2CC[C@@H]3CN2C(=O)N3OS(=O)(=O)O)o1 [Compound 707, (2S,5R)-2-(5-amino-1,3,4-oxadiazol-2-yl)-7-oxo-1,6-diazabicyclo[3.2.1]octan-6-yl hydrogen sulfate] | more active than Avibactam
12 | O=C1N2C[C@@H](CC[C@H]2c2nnc(N3CCNCC3)o2)N1OS(=O)(=O)O [Compound 713, (2S,5R)-7-oxo-2-(5-(piperazin-1-yl)-1,3,4-oxadiazol-2-yl)-1,6-diazabicyclo[3.2.1]octan-6-yl hydrogen sulfate] | more active than Avibactam
13 | N=C(N)NCCCc1nnc([C@@H]2CC[C@@H]3CN2C(=O)N3OS(=O)(=O)O)o1 [Compound 714, (2S,5R)-2-(5-(3-guanidinopropyl)-1,3,4-oxadiazol-2-yl)-7-oxo-1,6-diazabicyclo[3.2.1]octan-6-yl hydrogen sulfate] | more active than Avibactam
14 | NCC(O)Cc1nnc([C@@H]2CC[C@@H]3CN2C(=O)N3OS(=O)(=O)O)o1 (stereo partly drawn) [Compound 733, (2S,5R)-2-(5-(3-amino-2-hydroxypropyl)-1,3,4-oxadiazol-2-yl)-7-oxo-1,6-diazabicyclo[3.2.1]octan-6-yl hydrogen sulfate] | more active than Avibactam
15 | N=C(N)N1CCC(c2nnc([C@@H]3CC[C@@H]4CN3C(=O)N4OS(=O)(=O)O)o2)CC1 [Compound 712, (2S,5R)-2-(5-(1-carbamimidoylpiperidin-4-yl)-1,3,4-oxadiazol-2-yl)-7-oxo-1,6-diazabicyclo[3.2.1]octan-6-yl hydrogen sulfate] | more active than Avibactam
16 | N[C@H]1C[C@H](NCc2nnc([C@@H]3CC[C@@H]4CN3C(=O)N4OS(=O)(=O)O)o2)C1 [Compound 757, (2S,5R)-2-(5-((((1r,3S)-3-aminocyclobutyl)amino)methyl)-1,3,4-oxadiazol-2-yl)-7-oxo-1,6-diazabicyclo[3.2.1]octan-6-yl hydrogen sulfate] | more active than Avibactam
17 | NCC(N)c1nnc([C@@H]2CC[C@@H]3CN2C(=O)N3OS(=O)(=O)O)o1 (stereo partly drawn) [Compound 717, (2S,5R)-2-(5-(1,2-diaminoethyl)-1,3,4-oxadiazol-2-yl)-7-oxo-1,6-diazabicyclo[3.2.1]octan-6-yl hydrogen sulfate] | more active than Avibactam
18 | NCC(O)c1nnc([C@@H]2CC[C@@H]3CN2C(=O)N3OS(=O)(=O)O)o1 (stereo partly drawn) [Compound 715, (2S,5R)-2-(5-(2-amino-1-hydroxyethyl)-1,3,4-oxadiazol-2-yl)-7-oxo-1,6-diazabicyclo[3.2.1]octan-6-yl hydrogen sulfate] | more active than Avibactam
19 | NCCNCCc1nnc([C@@H]2CC[C@@H]3CN2C(=O)N3OS(=O)(=O)O)o1 [Compound 716, (2S,5R)-2-(5-(2-((2-aminoethyl)amino)ethyl)-1,3,4-oxadiazol-2-yl)-7-oxo-1,6-diazabicyclo[3.2.1]octan-6-yl hydrogen sulfate] | more active than Avibactam
20 | O=C1N2C[C@@H](CC[C@H]2c2nnc([C@@H]3CNCCN3)o2)N1OS(=O)(=O)O [Compound 778, (2S,5R)-7-oxo-2-(5((S)-piperazin-2-yl)-1,3,4-oxadiazol-2-yl)-1,6-diazabicyclo[3.2.1]octan-6-yl hydrogen sulfate] | more active than Avibactam
